Results: PubChem BioAssay (NCI)
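A five-concentration, 48-hour dose response in 96-well plates underlies each endpoint, interpolated linearly between surrounding concentrations. At the TGI there is no net growth.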

Key:
Experiment in all cases: growth of human tumour cells (NCI), 48 h
CAKI-1 renal = test system: CAKI-1 renal
DLD-1 colon = test system: DLD-1 colon
DMS 114 small cell lung = test system: DMS 114 small cell lung
HOP-62 NSCLC = test system: HOP-62 NSCLC
KM20L2 colon = test system: KM20L2 colon
LXFL 529 NSCLC = test system: LXFL 529 NSCLC
M19-MEL melanoma = test system: M19-MEL melanoma
RPMI-8226 leukemia = test system: RPMI-8226 leukemia
SNB-78 CNS = test system: SNB-78 CNS
TK-10 renal = test system: TK-10 renal
DMS 273 small cell lung = test system: DMS 273 small cell lung

SMILES	TGI (CAKI-1 renal) [µM]	TGI (DLD-1 colon) [µM]	TGI (DMS 114 small cell lung) [µM]	TGI (HOP-62 NSCLC) [µM]	TGI (KM20L2 colon) [µM]	TGI (LXFL 529 NSCLC) [µM]	TGI (M19-MEL melanoma) [µM]	TGI (RPMI-8226 leukemia) [µM]	TGI (SNB-78 CNS) [µM]	TGI (TK-10 renal) [µM]	TGI (DMS 273 small cell lung) [µM]
O=C1/C=C(/c2ccc(O)cc2)[C@H](O)Cc2ccc(OC3OC(CO)C(O)C(O)C3O)cc2O1 (stereo partly drawn) (tested in a mixture with another compound)	> 100	> 100	> 100	> 100	> 100	> 100	> 100	> 100	> 100	> 100	
COC(=O)c1nc(N)[nH]c(=O)c1-c1ccc(Cl)cc1	> 100	> 100	> 100	> 100	> 100	> 100	> 100	> 100	> 100	> 100	> 100
CCCCCCCCOCC(O)COC (stereo not drawn)	> 100	> 100	> 100	> 100		> 100	> 100	> 100		> 100	> 100
O=C(c1ccc(Cl)cc1)N(C(=S)N1CCN(c2ccccc2)CC1)C1CCCCC1	> 100	> 100	> 100	> 100	> 100	> 100	> 100	> 100	> 100	> 100	> 100
COc1ccc(/C=N\N2C(=O)Cc3ccccc32)cc1	> 100	> 100		> 100	> 100		> 100	> 100	> 100	> 100	> 100
COc1cc(C=C2C(=O)OC(C)(C)OC2=O)cc(OC)c1OC	> 100	> 100	> 100		> 100	> 100	> 100	> 100	> 100	> 100	> 100
COC(=O)c1ccc2n[se]nc2c1	> 100	> 100	> 100	> 100	> 100	> 100	> 100	> 100	> 100	> 100	> 100
CCC(C)CNC1=C(NC(C)=O)C(=O)c2ccccc2C1=O (stereo not drawn)		> 100		> 100	> 100	> 100	42.6		> 100	> 100	> 100
Cc1cc(C)c(-c2noc(-c3ccc(Cl)cc3)c2C2=NCCN2)c(C)c1	> 100	75.9		62	54	44.5	> 100	50.6	58.3		
COc1ccc2c(c1)C(CCN)C(=O)N2 (stereo not drawn)	> 100	> 100	> 100	> 100	> 100	> 100	> 100	> 100	> 100	> 100	> 100
